Source: the OPERA property sets (Mansouri et al. 2018)

Structure (SMILES)	log10 OH rate constant (cm³/molecule/s) (25.0 °C)	also measured
C/C=N/O	-11.7	–
C=C(C)C	-10.3	–
Cc1ccc(N)cc1N	-9.72	–
CCCC	-11.6	–
c1cocn1	-11	–
CNC	-10.2	–
CCC(O)CC	-10.9	–
CC(C)(C)C=O	-10.6	–
CC(C)C(=O)O	-11.7	–
FC(F)(F)c1ccccc1	-12.3	–
C=C=O	-10.8	–
CC(C)C(C)(C)C	-11.4	–
CCCC(C)(C)C	-11.5	–
C1CCCCC1	-11.1	–
CC(=O)C(C)(C)C	-11.9	–
C=C=CCC	-10.4	–
FC(F)(F)F	< -15.4	–
c1cc[nH]c1	-9.96	–
CN(C)CCO	-10	–
CCC=O	-10.7	–
C#CC#C	-10.7	–
C1=CCCCC1	-10.2	–
C1CO1	-13.1	–
COCC(C)=O	-11.2	–
FC(F)(F)Cl	< -15.2	–
CCC=C=O	-9.93	–

Structure (SMILES)	log10 OH rate constant (cm³/molecule/s) (25.0 °C)	also measured
C=C=CC	-10.6	–
C1=CC2C=CC1C2	-9.92	–
C=CCCC=C	-10.2	–
Cc1cccc(C)c1C	-10.5	–
Clc1ccc(Cl)c2ccccc12	-11.2	–
Cc1ccc2ccccc2c1[N+](=O)[O-]	< -11.1	–
C=C	-11.1	–
C=CC(C)=O	-10.7	–
CCc1ccc(C)cc1	-10.9	–
O=Cc1ccccc1	-10.9	–
Cc1cccc(C)c1	-10.6	–
CC#CC	-10.6	–
CC(C)S	-10.4	–
CCCCC(C)CCC (stereo not drawn)	-11	–
CC(=O)CC(C)C	-10.9	–
OCCCl	-11.9	–
CC(=O)OCC(C)C	-11.3	–
C=C=C(C)C	-10.2	–
CCCCCCCC(C)=O	-10.9	–
CCC(C)C	-11.4	–
C1CC2CCC1CC2	-10.8	–
Clc1ccccc1	-12.1	–
CCOC(C)=O	-11.8	–
Cc1cccc(O)c1	-10.2	–
FC(Cl)Cl	-13.5	–
ClC(Cl)Cl	-13	–

Structure (SMILES)	log10 OH rate constant (cm³/molecule/s) (25.0 °C)	also measured
CN	–	log10 OH rate constant (cm³/molecule/s) (26.0 °C): -10.7
ClC=C(Cl)Cl	-11.6	–
C=CC=C(C)C	-9.88	–
Oc1cccc(Cl)c1Cl	-11.8	–
C1COC1	-11	–
C1=Cc2cccc3cccc1c23	-9.96	–
c1ncncn1	–	log10 OH rate constant (cm³/molecule/s) (23.0 °C): -12.8
Cc1ccc(O)cc1	-10.3	–
ClCCl	-12.8	–
C=Cc1ccccc1	-10.2	–
c1ccc2c(c1)CCC2	-11	–
Fc1ccccc1	-12.2	–
C=CCO	-10.6	–
O=[N+]([O-])c1ccccc1	-12.9	–
C=CC=C	-10.2	–
CCC(C)(C)C	-11.6	–
CCOCCOC(C)=O	-10.9	–
Cc1ccccc1	-11.2	–
COc1ccccc1	-10.8	–
CN(C)N=O	-11.6	–
CCCCC=O	-10.5	–
CC(C)(C)S	-10.5	–
CCCCOCCO	-10.7	–
C1CCOC1	-10.8	–
Cc1cc(C)cc(C)c1	-10.2	–
CCCCC(C)(C)C	-11.3	–

Structure (SMILES)	log10 OH rate constant (cm³/molecule/s) (25.0 °C)	also measured
CCCCCCCCCCCCCC	-10.7	–
CCCc1ccccc1	-11.2	–
C1OCOCO1	-11.2	–
CCSC	-11.1	–
COCCO	-10.9	–
Cc1ccc(C)cc1	-10.8	–
Clc1ccccc1Cl	-12.4	–
Clc1ccc(-c2ccccc2)cc1	-11.4	–
CC1CCCCC1	-11	–
CCCSCCC	-10.7	–
CCc1ccccc1C	-10.9	–
CCCCCCC(C)C	-11	–
CC1=CCC(C(C)C)C=C1 (stereo not drawn)	-9.5	–
CC(=O)OO[N+](=O)[O-]	-13	–
CC=O	-10.8	–
C1CCCC1	-11.3	–
ClCC1CO1 (stereo not drawn)	-12.4	–
C=C(C)c1ccccc1	-10.3	–
CCCC(C)O (stereo not drawn)	-10.9	–
CC(C)=Cc1ccccc1	-10.5	–
CC(=O)c1ccccc1	-11.6	–
CC1CCCC(C)(C)C1 (stereo not drawn)	-11.1	–
Cc1ccccc1O	-10.4	–
C=CCC=C	-10.3	–
Oc1ccccc1	-10.6	–
CC(=O)C=O	-10.8	–

Structure (SMILES)	log10 OH rate constant (cm³/molecule/s) (25.0 °C)	also measured
c1ccccc1	-11.9	–
C1CCCCCC1	-10.9	–
CF	-13.8	–
O=CCO	-11	–
CC(C)C(C)O (stereo not drawn)	-10.9	–
CCS	-10.3	–
CCCCCCCCC	-11	–
C=CF	-11.3	–
CCCCS	-10.3	–
Sc1ccccc1	-11	–
CC(=O)OC(C)C	-11.5	–
C=C1C=CC(C(C)C)CC1 (stereo not drawn)	-9.77	–
C1CCCCCCC1	-10.9	–
CC=Cc1ccccc1	-10.2	–
ClC(Cl)(Cl)Cl	< -15.9	–
O=[N+]([O-])c1cccc2ccccc12	-11.3	–
CC(C)C(C)C	-11.2	–
C1C2CC3CC1CC(C2)C3	-10.6	–
CC(C)C=O	-10.6	–
CCCCCCCC	-11.1	–
O=[N+]([O-])c1ccc2ccccc2c1	-11.3	–
C=C(CCl)CCl	-10.5	–
CCCCCCCCCCCCC	-10.8	–
C=C(C)C(=C)C	-9.91	–
C=CC(C)(C)C	-10.5	–
C=CCCCC	-10.4	–

Structure (SMILES)	log10 OH rate constant (cm³/molecule/s) (25.0 °C)	also measured
CC(C)COCC(C)C	-10.6	–
FCF	-14	–
CCOCCCO	-10.7	–
O=CO	-12.3	–
CC1=CCCCC1	-10	–
CS	-10.5	–
OCCO	-11.1	–
O=C1CCC1	-12.1	–
FC(F)C(F)(F)F	-14.6	–
c1c[nH]cn1	–	log10 OH rate constant (cm³/molecule/s) (24.0 °C): -10.4
C1CC2CCC1C2	-11.3	–
CC	-12.6	–
CC(F)F	-13.5	–
CC(C)CC(C)C(C)C (stereo not drawn)	-11.1	–
O=CC=O	-10.9	–
CC(C)(C)C	-12.1	–
C=CC(C)=CC	-9.87	–
CC(O)CO (stereo not drawn)	-10.9	–
COP(N)(=S)OC	-9.61	–
FCCl	-13.4	–
OCC(Cl)(Cl)Cl	-12.6	–
Cc1ccc2ccccc2c1	-10.3	–
C1=CC2CCC1C2	-10.3	–
